Assay [1] addresses T1, Tyrosinase (Agaricus bisporus, UniProt O42713).
T1 sequence (O42713 whole entry): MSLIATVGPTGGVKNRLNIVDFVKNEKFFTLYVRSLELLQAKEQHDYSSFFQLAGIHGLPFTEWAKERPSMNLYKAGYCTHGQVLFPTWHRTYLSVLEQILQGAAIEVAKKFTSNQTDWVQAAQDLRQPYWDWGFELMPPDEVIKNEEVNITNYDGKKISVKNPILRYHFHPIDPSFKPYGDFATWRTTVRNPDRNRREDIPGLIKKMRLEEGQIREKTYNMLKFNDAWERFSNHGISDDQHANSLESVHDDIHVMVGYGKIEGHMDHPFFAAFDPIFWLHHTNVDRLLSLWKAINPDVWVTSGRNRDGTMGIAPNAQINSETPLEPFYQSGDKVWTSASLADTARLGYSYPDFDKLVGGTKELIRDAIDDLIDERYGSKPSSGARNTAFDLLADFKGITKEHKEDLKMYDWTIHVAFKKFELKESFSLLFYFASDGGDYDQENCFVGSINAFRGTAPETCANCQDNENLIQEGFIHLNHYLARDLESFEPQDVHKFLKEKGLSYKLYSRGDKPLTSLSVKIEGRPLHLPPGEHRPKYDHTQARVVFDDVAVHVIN
Description: Inhibition of mushroom tyrosinase after 20 mins by microplate reader analysis

Assay [2] relates to RAW264.7. In words: cells. Conditions: Mus musculus.
Description: Antiinflammatory activity in mouse RAW264.7 cells assessed as inhibition of LPS-induced nitric oxide production treated for 30 mins before LPS challenge measured after 24 hrs by Griess reagent method
Assay [3] has as its system RAW264.7. In words: cells. Conditions: Mus musculus, RAW264.7, 24 h.
Description: Cytotoxicity against mouse RAW264.7 cells after 24 hrs by MTT assay

We go through 14 compounds from ChEMBL document CHEMBL1268992, “Kojyl thioether derivatives having both tyrosinase inhibitory and anti-inflammatory properties” (Bioorg Med Chem Lett, 2010).

pIC50: −log10 of the molar value.

In general, pIC50 refers to the negative decadic logarithm of the IC50, by convention in mol/L. A lower pIC50 goes with a high IC50. For the compound `CCCSCc1cc(=O)c(O)co1`, the pIC50 is 5.71 in assay [1], under 4.00 in assay [2] and under 4.00 in assay [3].

As to `CCCCCC[S+]([O-])Cc1cc(=O)c(O)co1` (configuration not stated), the pIC50 in assay [1] is 4.13; in assay [2] it was under 4.00; in assay [3], under 4.00.

Take `O=c1cc(CS(=O)(=O)C2CCCCC2)occ1O`: the figures for the pIC50 in assay [1], in assay [2] and in assay [3] were 4.16, under 4.00 and under 4.00, respectively.

Regarding `CCCCSCc1cc(=O)c(O)co1`, the negative-log IC50 (pIC50) is 5.83 in assay [1], under 4.00 in assay [2] and under 4.00 in assay [3].

For the compound `CCCCCSCc1cc(=O)c(O)co1`, the pIC50 in assay [1] was 7.01; in assay [2] it was 4.21; in assay [3], under 4.00.

As for `CCCCCCCSCc1cc(=O)c(O)co1`, the pIC50 in assay [1] is 5.58; in assay [2], under 4.00; in assay [3] it was 4.01.

Turning to `CCCCC[S+]([O-])Cc1cc(=O)c(O)co1` (configuration not stated), the pIC50 is 4.10 in assay [1], under 4.00 in assay [2] and under 4.00 in assay [3].

Consider `O=c1cc(C[S+]([O-])C2CCCCC2)occ1O` (configuration not stated), for which the values for the pIC50 in assay [1], in assay [2] and in assay [3] were 4.10, under 4.00 and under 4.00, respectively.

Consider `CCCCCCS(=O)(=O)Cc1cc(=O)c(O)co1`, for which the pIC50 in assay [1] was 4.31; in assay [2], under 4.00; in assay [3], under 4.00.

Turning to `CCCCCCCCSCc1cc(=O)c(O)co1`, the figures for the pIC50 in assay [1], in assay [2] and in assay [3] were 4.34, under 4.00 and under 4.00, respectively.

With `O=c1cc(CSC2CCCCC2)occ1O`, the negative-log IC50 (pIC50) in assay [1] was 7.06; in assay [2] it was 4.25; in assay [3], under 4.00.

For the compound `CCSCc1cc(=O)c(O)co1`, the pIC50 in assay [1] is 5.59; in assay [2] it was under 4.00; in assay [3] it was under 4.00.

Turning to `CCCCCCSCc1cc(=O)c(O)co1`, the results for the pIC50 in assay [1], in assay [2] and in assay [3] were 6.72, 4.59 and under 4.00, respectively.

Take `CCCCCS(=O)(=O)Cc1cc(=O)c(O)co1`: the pIC50 is 4.12 in assay [1], under 4.00 in assay [2] and under 4.00 in assay [3].
